Test results published in patent US20260262643A1, “HERBICIDAL BENZOXAZINES” (FMC CORPORATION, priority 2022, published 2026).

Experiments:
[1] = test system: barnyardgrass; assay: Test C preemergence; type: in vivo, Echinochloa crusgalli; conditions: for Barnyardgrass plant response rating: 500 g ai/ha, preemergence, 0 to 100 scale (0 no effect, 100 complete control); for Plant response rating, Barnyardgrass: Preemergence, 125 g ai/ha, 0 to 100 scale, 0 no effect, 100 complete control
In short: (§1)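 Test material, in non-phytotoxic solvent with surfactant, was sprayed on the soil directly after seeding (preemergence) or on young plants of 2–10 cm with one to two leaves (postemergence). Greenhouse, 10 days; 0–100 visual control scale.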

[2] = test system: blackgrass; assay: Test C preemergence; type: in vivo, Alopecurus myosuroides; conditions: for Blackgrass plant response rating: 500 g ai/ha, preemergence, 0 to 100 scale (0 no effect, 100 complete control); for Plant response rating, Blackgrass: Preemergence, 125 g ai/ha, 0 to 100 scale, 0 no effect, 100 complete control
In short: as §1

[3] = test system: corn; assay: Test C preemergence; type: in vivo, Zea mays; conditions: for Corn plant response rating: 500 g ai/ha, preemergence, 0 to 100 scale (0 no effect, 100 complete control)
In short: as §1

[4] = test system: foxtail, giant; assay: Test C preemergence; type: in vivo, Setaria faberi; conditions: for Foxtail, Giant plant response rating: 500 g ai/ha, preemergence, 0 to 100 scale (0 no effect, 100 complete control); for Plant response rating, Foxtail, Giant: Preemergence, 125 g ai/ha, 0 to 100 scale, 0 no effect, 100 complete control
In short: as §1

[5] = test system: kochia; assay: Test C preemergence; type: in vivo, Bassia scoparia; conditions: for Kochia plant response rating: 500 g ai/ha, preemergence, 0 to 100 scale (0 no effect, 100 complete control); for Plant response rating, Kochia: Preemergence, 125 g ai/ha, 0 to 100 scale, 0 no effect, 100 complete control
In short: as §1

[6] = test system: oat, wild; assay: Test C preemergence; type: in vivo, Avena fatua; conditions: for Oat, Wild plant response rating: 500 g ai/ha, preemergence, 0 to 100 scale (0 no effect, 100 complete control); for Plant response rating, Oat, Wild: Preemergence, 125 g ai/ha, 0 to 100 scale, 0 no effect, 100 complete control
In short: as §1

[7] = test system: pigweed, palmer; assay: Test C preemergence; type: in vivo, Amaranthus palmeri; conditions: for Pigweed, Palmer plant response rating: 500 g ai/ha, preemergence, 0 to 100 scale (0 no effect, 100 complete control); for Plant response rating, Pigweed, Palmer: Preemergence, 125 g ai/ha, 0 to 100 scale, 0 no effect, 100 complete control
In short: as §1

[8] = test system: ragweed; assay: Test C preemergence; type: in vivo, Ambrosia artemisiifolia; conditions: for Ragweed plant response rating: 500 g ai/ha, preemergence, 0 to 100 scale (0 no effect, 100 complete control); for Plant response rating, Ragweed: Preemergence, 125 g ai/ha, 0 to 100 scale, 0 no effect, 100 complete control
In short: as §1

[9] = test system: ryegrass, Italian; assay: Test C preemergence; type: in vivo, Lolium multiflorum; conditions: for Ryegrass, Italian plant response rating: 500 g ai/ha, preemergence, 0 to 100 scale (0 no effect, 100 complete control); for Plant response rating, Ryegrass, Italian: Preemergence, 125 g ai/ha, 0 to 100 scale, 0 no effect, 100 complete control
In short: as §1

[10] = test system: soybean; assay: Test C preemergence; type: in vivo, Glycine max; conditions: for Soybean plant response rating: 500 g ai/ha, preemergence, 0 to 100 scale (0 no effect, 100 complete control); for Plant response rating, Soybean: Preemergence, 125 g ai/ha, 0 to 100 scale, 0 no effect, 100 complete control
In short: as §1

[11] = test system: wheat; assay: Test C preemergence; type: in vivo, Triticum aestivum; conditions: for Wheat plant response rating: 500 g ai/ha, preemergence, 0 to 100 scale (0 no effect, 100 complete control); for Plant response rating, Wheat: Preemergence, 125 g ai/ha, 0 to 100 scale, 0 no effect, 100 complete control
In short: as §1

[12] = test system: barnyardgrass; assay: Test C postemergence; type: in vivo, Echinochloa crusgalli; conditions: 10 days, 0 to 100 scale (0 no effect, 100 complete control)
In short: as §1

[13] = test system: blackgrass; assay: Test C postemergence; type: in vivo, Alopecurus myosuroides; conditions: 10 days, 0 to 100 scale (0 no effect, 100 complete control)
In short: as §1

[14] = test system: corn; assay: Test C postemergence; type: in vivo, Zea mays; conditions: 10 days, 0 to 100 scale (0 no effect, 100 complete control)
In short: as §1

[15] = test system: foxtail, giant; assay: Test C postemergence; type: in vivo, Setaria faberi; conditions: 10 days, 0 to 100 scale (0 no effect, 100 complete control)
In short: as §1

[16] = test system: kochia; assay: Test C postemergence; type: in vivo, Bassia scoparia; conditions: 10 days, 0 to 100 scale (0 no effect, 100 complete control)
In short: as §1

[17] = test system: oat, wild; assay: Test C postemergence; type: in vivo, Avena fatua; conditions: 10 days, 0 to 100 scale (0 no effect, 100 complete control)
In short: as §1

[18] = test system: pigweed, palmer; assay: Test C postemergence; type: in vivo, Amaranthus palmeri; conditions: 10 days, 0 to 100 scale (0 no effect, 100 complete control)
In short: as §1

[19] = test system: ragweed; assay: Test C postemergence; type: in vivo, Ambrosia artemisiifolia; conditions: 10 days, 0 to 100 scale (0 no effect, 100 complete control)
In short: as §1

[20] = test system: ryegrass, Italian; assay: Test C postemergence; type: in vivo, Lolium multiflorum; conditions: 10 days, 0 to 100 scale (0 no effect, 100 complete control)
In short: as §1

[21] = test system: soybean; assay: Test C postemergence; type: in vivo, Glycine max; conditions: 10 days, 0 to 100 scale (0 no effect, 100 complete control)
In short: as §1

[22] = test system: wheat; assay: Test C postemergence; type: in vivo, Triticum aestivum; conditions: 10 days, 0 to 100 scale (0 no effect, 100 complete control)
In short: as §1

[23] = test system: galium; assay: Test C postemergence; type: in vivo, Galium aparine; conditions: 10 days, 0 to 100 scale (0 no effect, 100 complete control)
In short: as §1

[24] = test system: horseweed; assay: Test C postemergence; type: in vivo, Erigeron canadensis; conditions: 10 days, 0 to 100 scale (0 no effect, 100 complete control)
In short: as §1

[25] = test system: barnyardgrass; assay: Test D flooded paddy test; type: in vivo, Echinochloa crus-galli; conditions: 250 g ai/ha, applied to paddy water, visual rating after 13 to 14 days, scale 0 to 100 (0 no effect, 100 complete control)
In short: (§2)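 Rating scale 0–100 (0 no effect, 100 complete control), visual, versus controls. Readout at 13–14 days after in-water application to 2-leaf plants in pots flooded 3 cm deep.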

[26] = test system: ducksalad; assay: Test D flooded paddy test; type: in vivo, Heteranthera limosa; conditions: 250 g ai/ha, applied to paddy water, visual rating after 13 to 14 days, scale 0 to 100 (0 no effect, 100 complete control)
In short: as §2

[27] = test system: rice; assay: Test D flooded paddy test; type: in vivo, Oryza sativa; conditions: 250 g ai/ha, applied to paddy water, visual rating after 13 to 14 days, scale 0 to 100 (0 no effect, 100 complete control)
In short: as §2

[28] = test system: sedge, umbrella; assay: Test D flooded paddy test; type: in vivo, Cyperus difformis; conditions: 250 g ai/ha, applied to paddy water, visual rating after 13 to 14 days, scale 0 to 100 (0 no effect, 100 complete control)
In short: as §2

Cc1ncnn1-c1cc(C(=O)N2CC(C(F)(F)F)Oc3c(Cl)cccc32)ccn1 (racemic) [Compound 333]
Barnyardgrass plant response rating [1]: 0
Plant response rating, Barnyardgrass [1]: 0
Blackgrass plant response rating [2]: 0
Plant response rating, Blackgrass [2]: 0
Corn plant response rating [3]: 0
Plant response rating, Corn ([3]; Preemergence, 125 g ai/ha, 0 to 100 scale, 0 no effect, 100 complete control): 0
Foxtail, Giant plant response rating [4]: 80
Plant response rating, Foxtail, Giant [4]: 0
Kochia plant response rating [5]: 10
Plant response rating, Kochia [5]: 0
Oat, Wild plant response rating [6]: 0
Plant response rating, Oat, Wild [6]: 0
Pigweed, Palmer plant response rating [7]: 30
Plant response rating, Pigweed, Palmer [7]: 0
Ragweed plant response rating [8]: 0
Plant response rating, Ragweed [8]: 0
Ryegrass, Italian plant response rating [9]: 40
Plant response rating, Ryegrass, Italian [9]: 30
Soybean plant response rating [10]: 0
Plant response rating, Soybean [10]: 0
Wheat plant response rating [11]: 0
Plant response rating, Wheat [11]: 0
Plant response rating, Barnyardgrass ([12]; 500 g ai/ha, postemergence): 10
Plant response rating, Barnyardgrass ([12]; Postemergence, 125 g ai/ha): 10
Plant response rating, Blackgrass ([13]; 500 g ai/ha, postemergence): 20
Plant response rating, Blackgrass ([13]; Postemergence, 125 g ai/ha): 0
Plant response rating, Corn ([14]; 500 g ai/ha, postemergence): 20
Plant response rating, Corn ([14]; Postemergence, 125 g ai/ha): 10
Plant response rating, Foxtail, Giant ([15]; 500 g ai/ha, postemergence): 40
Plant response rating, Foxtail, Giant ([15]; Postemergence, 125 g ai/ha): 20
Plant response rating, Kochia ([16]; 500 g ai/ha, postemergence): 50
Plant response rating, Kochia ([16]; Postemergence, 125 g ai/ha): 30
Plant response rating, Oat, Wild ([17]; 500 g ai/ha, postemergence): 0
Plant response rating, Oat, Wild ([17]; Postemergence, 125 g ai/ha): 0
Plant response rating, Pigweed, Palmer ([18]; 500 g ai/ha, postemergence): 20
Plant response rating, Pigweed, Palmer ([18]; Postemergence, 125 g ai/ha): 0
Plant response rating, Ragweed ([19]; 500 g ai/ha, postemergence): 10
Plant response rating, Ragweed ([19]; Postemergence, 125 g ai/ha): 0
Plant response rating, Ryegrass, Italian ([20]; 500 g ai/ha, postemergence): 10
Plant response rating, Ryegrass, Italian ([20]; Postemergence, 125 g ai/ha): 0
Plant response rating, Soybean ([21]; 500 g ai/ha, postemergence): 50
Plant response rating, Soybean ([21]; Postemergence, 125 g ai/ha): 50
Plant response rating, Wheat ([22]; 500 g ai/ha, postemergence): 10
Plant response rating, Wheat ([22]; Postemergence, 125 g ai/ha): 10
Plant response rating, Galium ([23]; 500 g ai/ha, postemergence): 60
Plant response rating, Galium ([23]; Postemergence, 125 g ai/ha): 0
Plant response rating, Horseweed ([24]; 500 g ai/ha, postemergence): 0
Plant response rating, Horseweed ([24]; Postemergence, 125 g ai/ha): 0
Plant response rating, Barnyardgrass (Flood) [25]: 0
Plant response rating, Ducksalad (Flood) [26]: 0
Plant response rating, Rice (Flood) [27]: 0
Plant response rating, Sedge, Umbrella (Flood) [28]: 0

Cc1ncn(-c2cccc(C(=O)N3C[C@H](C)Oc4c(Cl)cccc43)c2)n1 [Compound 326]
Barnyardgrass plant response rating [1]: 90
Plant response rating, Barnyardgrass [1]: 60
Blackgrass plant response rating [2]: 90
Plant response rating, Blackgrass [2]: 80
Corn plant response rating [3]: 40
Foxtail, Giant plant response rating [4]: 100
Plant response rating, Foxtail, Giant [4]: 100
Kochia plant response rating [5]: 90
Plant response rating, Kochia [5]: 80
Oat, Wild plant response rating [6]: 80
Plant response rating, Oat, Wild [6]: 30
Pigweed, Palmer plant response rating [7]: 100
Plant response rating, Pigweed, Palmer [7]: 60
Ragweed plant response rating [8]: 0
Plant response rating, Ragweed [8]: 0
Ryegrass, Italian plant response rating [9]: 100
Plant response rating, Ryegrass, Italian [9]: 90
Soybean plant response rating [10]: 80
Plant response rating, Soybean [10]: 70
Wheat plant response rating [11]: 80
Plant response rating, Wheat [11]: 20
Plant response rating, Barnyardgrass ([12]; 500 g ai/ha, postemergence): 80
Plant response rating, Barnyardgrass ([12]; Postemergence, 125 g ai/ha): 30
Plant response rating, Blackgrass ([13]; 500 g ai/ha, postemergence): 80
Plant response rating, Blackgrass ([13]; Postemergence, 125 g ai/ha): 80
Plant response rating, Corn ([14]; 500 g ai/ha, postemergence): 80
Plant response rating, Corn ([14]; Postemergence, 125 g ai/ha): 10
Plant response rating, Foxtail, Giant ([15]; 500 g ai/ha, postemergence): 90
Plant response rating, Foxtail, Giant ([15]; Postemergence, 125 g ai/ha): 70
Plant response rating, Kochia ([16]; 500 g ai/ha, postemergence): 80
Plant response rating, Kochia ([16]; Postemergence, 125 g ai/ha): 80
Plant response rating, Oat, Wild ([17]; 500 g ai/ha, postemergence): 50
Plant response rating, Oat, Wild ([17]; Postemergence, 125 g ai/ha): 20
Plant response rating, Pigweed, Palmer ([18]; 500 g ai/ha, postemergence): 60
Plant response rating, Pigweed, Palmer ([18]; Postemergence, 125 g ai/ha): 20
Plant response rating, Ragweed ([19]; 500 g ai/ha, postemergence): 60
Plant response rating, Ragweed ([19]; Postemergence, 125 g ai/ha): 10
Plant response rating, Ryegrass, Italian ([20]; 500 g ai/ha, postemergence): 80
Plant response rating, Ryegrass, Italian ([20]; Postemergence, 125 g ai/ha): 40
Plant response rating, Soybean ([21]; 500 g ai/ha, postemergence): 100
Plant response rating, Soybean ([21]; Postemergence, 125 g ai/ha): 100
Plant response rating, Wheat ([22]; 500 g ai/ha, postemergence): 40
Plant response rating, Wheat ([22]; Postemergence, 125 g ai/ha): 20
Plant response rating, Galium ([23]; 500 g ai/ha, postemergence): 100
Plant response rating, Galium ([23]; Postemergence, 125 g ai/ha): 100
Plant response rating, Horseweed ([24]; 500 g ai/ha, postemergence): 50
Plant response rating, Horseweed ([24]; Postemergence, 125 g ai/ha): 0
Plant response rating, Barnyardgrass (Flood) [25]: 15
Plant response rating, Ducksalad (Flood) [26]: 80
Plant response rating, Rice (Flood) [27]: 0
Plant response rating, Sedge, Umbrella (Flood) [28]: 95
